Measurements as given in patent publication US10111890B2, “9-aminomethyl minocycline compounds and uses thereof” (Paratek Pharmaceuticals, Inc., priority 2016, dated 2018).
Where two headings read alike, the source gives them in different places.

Columns and labels:
[1] = test system: ABSSSI known or suspected to be due to Gram-positive pathogens; assay: Phase 3 oral omadacycline vs oral linezolid in ABSSSI: Investigator's Assessment of Clinical Response at PTE; type: in vivo, human; conditions: for Overall Clinical Success at PTE, %: micro-mITT, % of N1; for Difference (95% CI) in Overall Clinical Success rate at PTE: omadacycline minus linezolid
[2] = Prior Phase 1 studies: bioavailability / bioequivalence of oral tablet formulation; set-up: species or system human; conditions: in vivo; for bioavailability: human
[3] = Phase 1 food-effect crossover study: plasma PK after single 300 mg oral dose; type: in vivo, human; conditions: for AUC(0-inf) / AUC(0-t) / Cmax / Tmax: plasma, po, 300 mg
Method: These meals were to be consumed within 20 minutes. Dose administration for Treatments B, C, and D was based off of the end time of the meal. […] Geometric means were determined for AUC and Cmax. PK parameters were evaluated using non-compartmental analysis using Phoenix® WinNonlin® (Pharsight Corp, St. Louis, Mo.), Version 6.2.1. Confidence intervals (CI) for test treatments (fed states: Treatments B, C, and D) compared with the reference treatment (fasted state: Treatment A) were constructed for AUC0-24, AUC0-t, AUC0-inf, and Cmax.

## CN(C)c1cc(CNCC(C)(C)C)c(O)c2c1C[C@H]1C[C@H]3[C@H](N(C)C)C(O)=C(C(N)=O)C(=O)[C@@]3(O)C(O)=C1C2=O [Omadacycline, 9-[(2,2-dimethyl-propylamino)-methyl]-minocycline]
[1]; Wound Infection, type of infection as randomized, investigator assessment, mITT
  Overall clinical response at PTE: Clinical Success: 177 (82.7) n (%)
[1]; baseline pathogen Clostridium perfringens, investigator assessment
  Overall Clinical Success at PTE, %: (80.0) %
[1]; baseline pathogen Enterobacter cloacae, investigator assessment
  Overall Clinical Success at PTE, %: (80.0) %
[1]; baseline pathogen Enterococcus faecalis VSE, investigator assessment
  Overall Clinical Success at PTE, %: (100.0) %
[1]; baseline pathogen Enterococcus faecalis, investigator assessment
  Overall Clinical Success at PTE, %: (100.0) %
[1]; baseline pathogen Enterococcus faecium VSE, investigator assessment
  Overall Clinical Success at PTE, %: (100.0) %
[1]; baseline pathogen Enterococcus faecium, investigator assessment
  Overall Clinical Success at PTE, %: (100.0) %
[1]; baseline pathogen Escherichia coli, investigator assessment
  Overall Clinical Success at PTE, %: (100.0) %
[1]; baseline pathogen Finegoldia magna, investigator assessment
  Overall Clinical Success at PTE, %: (100.0) %
[1]; baseline pathogen Klebsiella pneumoniae, investigator assessment
  Overall Clinical Success at PTE, %: (80.0) %
[1]; baseline pathogen MRSA, investigator assessment
  Overall Clinical Success at PTE, %: (85.6) %
[1]; baseline pathogen MSSA, investigator assessment
  Overall Clinical Success at PTE, %: (80.8) %
[1]; baseline pathogen Prevotella denticola, investigator assessment
  Overall Clinical Success at PTE, %: (60.0) %
[1]; baseline pathogen Prevotella melaninogenica, investigator assessment
  Overall Clinical Success at PTE, %: (100.0) %
[1]; baseline pathogen Staphylococcus aureus, investigator assessment
  Overall Clinical Success at PTE, %: (82.7) %
[1]; baseline pathogen Staphylococcus lugdunensis, investigator assessment
  Overall Clinical Success at PTE, %: (80.0) %
[1]; baseline pathogen Streptococcus agalactiae, investigator assessment
  Overall Clinical Success at PTE, %: (50.0) %
[1]; baseline pathogen Streptococcus anginosus group, investigator assessment
  Overall Clinical Success at PTE, %: (86.0) %
[1]; baseline pathogen Streptococcus anginosus, investigator assessment
  Overall Clinical Success at PTE, %: (88.9) %
[1]; baseline pathogen Streptococcus constellatus, investigator assessment
  Overall Clinical Success at PTE, %: (88.9) %
[1]; baseline pathogen Streptococcus intermedius, investigator assessment
  Overall Clinical Success at PTE, %: (78.3) %
[1]; baseline pathogen Streptococcus mitis, investigator assessment
  Overall Clinical Success at PTE, %: (100.0) %
[1]; baseline pathogen Streptococcus pyogenes, investigator assessment
  Overall Clinical Success at PTE, %: (69.0) %
[1]; baseline pathogen Streptococcus viridans group, investigator assessment
  Overall Clinical Success at PTE, %: (100.0) %
[1]; investigator assessment, CE-PTE
  Overall clinical response at PTE: Clinical Failure: 6 (2.1) n (%)
[1]; investigator assessment, CE-PTE (N = 284 / N = 292)
  Overall clinical response at PTE: Clinical Success: 278 (97.9) n (%)
[1]; investigator assessment, mITT
  Overall clinical response at PTE: Clinical Failure: 12 (3.3) n (%)
  Overall clinical response at PTE: Clinical Failure or Indeterminate: 57 (15.8) n (%)
  Overall clinical response at PTE: Indeterminate: 45 (12.5) n (%)
[1]; investigator assessment, mITT (N = 360 per arm)
  Overall clinical response at PTE: Clinical Success: 303 (84.2) n (%)
[1]; mITT
  Difference in Overall Clinical Success rate at PTE, omadacycline minus linezolid: 3.3%
[1]; Cellulitis/erysipelas, actual type, mITT
  Difference (95% CI) in Overall Clinical Success rate at PTE: −4.5 (−14.0, 4.7)
[1]; Cellulitis/erysipelas, as randomized, mITT
  Difference (95% CI) in Overall Clinical Success rate at PTE: −5.1 (−14.9, 4.3)
[1]; Major Abscess, actual type, mITT
  Difference (95% CI) in Overall Clinical Success rate at PTE: 5.3 (−8.4, 19.2)
[1]; Major Abscess, as randomized, mITT
  Difference (95% CI) in Overall Clinical Success rate at PTE: 5.3 (−8.4, 19.2)
[1]; Wound Infection, actual type, mITT
  Difference (95% CI) in Overall Clinical Success rate at PTE: 5.7 (−2.0, 13.4)
[1]; Wound Infection, as randomized, mITT
  Difference (95% CI) in Overall Clinical Success rate at PTE: 6.1 (−1.6, 13.7)
[2]
  bioavailability: 35%
  bioequivalence of oral and i.v. dose (based on serum AUC): bioequivalent
[2]; phase 3 tablet formulation (tosylate salt), fasting conditions, read-out: absolute bioavailability
  bioavailability: 34.5%
[3]; Treatment A: fasted overnight
  AUC0-24, Mean (Coefficient of Variation): 7.2 (28.1) mcg * h/mL
  AUC0-t, Mean (Coefficient of Variation): 7.2 (28.1) mcg * h/mL
[3]; human, in vivo, across all treatment periods, read-out: mean T1/2
  half-life: 13.5 to 13.8 h
[3]; human, Treatment A: fasted overnight (N = 30), read-out: AUC0-inf, Geometric LS Mean
  AUC(0-inf): 10600 ng·h/mL
[3]; human, Treatment A: fasted overnight, read-out: AUC0-24, Geometric LS Mean
  AUC(0-t): 7400 ng·h/mL
[3]; human, Treatment A: fasted overnight, read-out: AUC0-24, Mean (Coefficient of Variation)
  AUC(0-t): 7200 ng·h/mL
[3]; human, Treatment A: fasted overnight, read-out: AUC0-inf, Mean (Coefficient of Variation)
  AUC(0-inf): 10200 ng·h/mL
[3]; human, Treatment A: fasted overnight, read-out: AUC0-t, Geometric LS Mean
  AUC(0-t): 7400 ng·h/mL
[3]; human, Treatment A: fasted overnight, read-out: AUC0-t, Mean (Coefficient of Variation)
  AUC(0-t): 7200 ng·h/mL
[3]; human, Treatment A: fasted overnight, read-out: Cmax, Geometric LS Mean
  Cmax: 660 ng/mL
[3]; human, Treatment A: fasted overnight, read-out: Cmax, Mean (Coefficient of Variation)
  Cmax: 600 ng/mL
[3]; human, Treatment A: fasted overnight, read-out: Tmax
  Tmax: 2.5 h
[3]; human, Treatment B: high-fat nondairy meal 4 h before dosing, read-out: AUC0-24, Geometric LS Mean
  AUC(0-t): 6200 ng·h/mL
[3]; human, Treatment B: high-fat nondairy meal 4 h before dosing, read-out: AUC0-24, Mean (Coefficient of Variation)
  AUC(0-t): 6100 ng·h/mL
[3]; human, Treatment B: high-fat nondairy meal 4 h before dosing, read-out: AUC0-inf, Geometric LS Mean
  AUC(0-inf): 9000 ng·h/mL
[3]; human, Treatment B: high-fat nondairy meal 4 h before dosing, read-out: AUC0-inf, Mean (Coefficient of Variation)
  AUC(0-inf): 8800 ng·h/mL
[3]; human, Treatment B: high-fat nondairy meal 4 h before dosing, read-out: AUC0-t, Geometric LS Mean
  AUC(0-t): 6200 ng·h/mL
[3]; human, Treatment B: high-fat nondairy meal 4 h before dosing, read-out: AUC0-t, Mean (Coefficient of Variation)
  AUC(0-t): 6100 ng·h/mL
[3]; human, Treatment B: high-fat nondairy meal 4 h before dosing, read-out: Cmax, Geometric LS Mean
  Cmax: 560 ng/mL
[3]; human, Treatment B: high-fat nondairy meal 4 h before dosing, read-out: Cmax, Mean (Coefficient of Variation)
  Cmax: 600 ng/mL
[3]; human, Treatment B: high-fat nondairy meal 4 h before dosing, read-out: Tmax
  Tmax: 2.9 h
[3]; human, Treatment C: high-fat nondairy meal 2 h before dosing, read-out: AUC0-24, Geometric LS Mean
  AUC(0-t): 4300 ng·h/mL
[3]; human, Treatment C: high-fat nondairy meal 2 h before dosing, read-out: AUC0-24, Mean (Coefficient of Variation)
  AUC(0-t): 4200 ng·h/mL
[3]; human, Treatment C: high-fat nondairy meal 2 h before dosing, read-out: AUC0-inf, Geometric LS Mean
  AUC(0-inf): 6200 ng·h/mL
[3]; human, Treatment C: high-fat nondairy meal 2 h before dosing, read-out: AUC0-inf, Mean (Coefficient of Variation)
  AUC(0-inf): 6000 ng·h/mL
[3]; human, Treatment C: high-fat nondairy meal 2 h before dosing, read-out: AUC0-t, Geometric LS Mean
  AUC(0-t): 4300 ng·h/mL
[3]; human, Treatment C: high-fat nondairy meal 2 h before dosing, read-out: AUC0-t, Mean (Coefficient of Variation)
  AUC(0-t): 4200 ng·h/mL
[3]; human, Treatment C: high-fat nondairy meal 2 h before dosing, read-out: Cmax, Geometric LS Mean
  Cmax: 390 ng/mL
[3]; human, Treatment C: high-fat nondairy meal 2 h before dosing, read-out: Cmax, Mean (Coefficient of Variation)
  Cmax: 400 ng/mL
[3]; human, Treatment C: high-fat nondairy meal 2 h before dosing, read-out: Tmax
  Tmax: 2.9 h
[3]; human, Treatment D: high-fat meal incl. dairy 2 h before dosing, read-out: AUC0-24, Geometric LS Mean
  AUC(0-t): 2800 ng·h/mL
[3]; human, Treatment D: high-fat meal incl. dairy 2 h before dosing, read-out: AUC0-24, Mean (Coefficient of Variation)
  AUC(0-t): 2800 ng·h/mL
[3]; human, Treatment D: high-fat meal incl. dairy 2 h before dosing, read-out: AUC0-inf, Geometric LS Mean
  AUC(0-inf): 4000 ng·h/mL
[3]; human, Treatment D: high-fat meal incl. dairy 2 h before dosing, read-out: AUC0-inf, Mean (Coefficient of Variation)
  AUC(0-inf): 4000 ng·h/mL
[3]; human, Treatment D: high-fat meal incl. dairy 2 h before dosing, read-out: AUC0-t, Geometric LS Mean
  AUC(0-t): 2800 ng·h/mL
[3]; human, Treatment D: high-fat meal incl. dairy 2 h before dosing, read-out: AUC0-t, Mean (Coefficient of Variation)
  AUC(0-t): 2800 ng·h/mL
[3]; human, Treatment D: high-fat meal incl. dairy 2 h before dosing, read-out: Cmax, Geometric LS Mean
  Cmax: 270 ng/mL
[3]; human, Treatment D: high-fat meal incl. dairy 2 h before dosing, read-out: Cmax, Mean (Coefficient of Variation)
  Cmax: 300 ng/mL
[3]; human, Treatment D: high-fat meal incl. dairy 2 h before dosing, read-out: Tmax
  Tmax: 2.9 h
[3]; human, across all treatment periods, read-out: median Tmax
  Tmax: 2.5 to 2.9 h
